Source: article PMC6934184, “Selective DNA-PKcs inhibition extends the therapeutic index of localized radiotherapy and chemotherapy” (The Journal of Clinical Investigation, 2019)

Target: T1, MST4 (Homo sapiens, UniProt Q9P289)
T1 construct: purchased Thermo Fisher Scientific (Life Technologies) SelectScreen
Assay: SelectScreen Z'LYTE
Assay type: biochemical
Outline: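 Percent values come from Thermo SelectScreen profiling of NU5455, combining activity and binding assays. CSF1R was run in Z'LYTE format at Km app ATP, and CAMK1 in Adapta format with ATP listed at 10.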

T1 sequence (Q9P289 whole entry): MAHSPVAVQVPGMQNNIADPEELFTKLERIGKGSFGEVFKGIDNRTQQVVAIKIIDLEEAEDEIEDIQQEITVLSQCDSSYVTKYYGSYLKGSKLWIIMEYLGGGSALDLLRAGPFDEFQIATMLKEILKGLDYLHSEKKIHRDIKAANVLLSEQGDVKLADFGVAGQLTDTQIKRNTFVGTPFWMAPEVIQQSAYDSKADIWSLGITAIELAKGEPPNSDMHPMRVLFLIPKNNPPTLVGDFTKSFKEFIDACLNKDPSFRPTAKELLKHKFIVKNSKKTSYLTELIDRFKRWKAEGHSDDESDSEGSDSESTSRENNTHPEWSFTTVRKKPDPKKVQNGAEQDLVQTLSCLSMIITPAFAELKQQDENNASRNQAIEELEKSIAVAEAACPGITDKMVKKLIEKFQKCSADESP

CN(C(=O)CN1CCOCC1)c1ccc2sc3c(-c4cccc5c(=O)cc(N6CC7CCC(C6)O7)oc45)cccc3c2c1 [NU5455]
inhibition at 1 µM: 6.9%
